Experimental data: PMC7679387, “VZHE-039, a novel antisickling agent that prevents erythrocyte sickling under both hypoxic and anoxic conditions” (Scientific Reports, 2020)

Experiments:
CYP1A2 = biological target: T1, CYP1A2 (Homo sapiens, UniProt P05177); assay: In vitro CYP inhibition, pooled human liver microsomes
T1 sequence (P05177 1-516): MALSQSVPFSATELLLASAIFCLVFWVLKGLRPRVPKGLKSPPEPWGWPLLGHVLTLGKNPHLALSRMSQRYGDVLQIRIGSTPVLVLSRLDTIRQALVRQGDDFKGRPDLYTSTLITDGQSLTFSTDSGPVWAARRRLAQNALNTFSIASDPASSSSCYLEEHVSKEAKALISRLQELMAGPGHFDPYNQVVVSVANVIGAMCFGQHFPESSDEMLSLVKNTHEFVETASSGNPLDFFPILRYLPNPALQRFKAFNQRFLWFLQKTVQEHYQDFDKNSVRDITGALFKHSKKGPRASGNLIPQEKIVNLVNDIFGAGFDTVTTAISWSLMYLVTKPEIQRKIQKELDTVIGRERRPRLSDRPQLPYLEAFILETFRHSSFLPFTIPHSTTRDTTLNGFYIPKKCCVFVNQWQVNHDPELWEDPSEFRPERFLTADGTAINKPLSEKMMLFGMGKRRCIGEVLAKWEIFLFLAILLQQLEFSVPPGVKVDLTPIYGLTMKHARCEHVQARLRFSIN
Description: Next, we tested VZHE-039 at concentrations of 0.1 to 100 µM, considered to be biologically relevant unbound plasma concentrations, for possible CYP inhibition using pooled human liver microsomes and isozyme-specific probe substrates (CYP1A2, CYP2C8, CYP2C9, CYP2C19, CYP2D6, CYP3A4, CYP2B6)[55].
VZHE-039 was studied for its inhibitory potential of seven major drug metabolizing human cytochrome P450 (CYP) enzymes (CYP1A2, CYP2C8, CYP2C9, CYP2C19, CYP2D6, CYP3A4, CYP2B6) using pooled human liver microsomes as published previously[26],[55]. The probe substrates include tacrine (CYP1A2), amodiaquine (CYP2C8), tolbutamide (CYP2C9), mephenytoin (CYP2C19), dextromethorphan (CYP2D6), midazolam (CYP3A4), testosterone (CYP3A4), and bupropion (CYP2B6). […] Assay conditions were optimized for each human cytochrome P450 substrate. The optimized reaction mixtures (200 μL) contained a final concentration of 0.2–0.5 mg/mL pooled human liver microsomes, 2 mM NADPH in 100 mM potassium phosphate, pH 7.4 buffer with 5 mM MgCl2, and VZHE-039 concentration of 0.1 to 100 µM. […] Effect of VZHE-039 on formation of the respective probe substrate metabolites (velnacrine, N‐desethylamodiaquine, 4-hydroxytolbutamide, 4′-hydroxymephenytoin, dextrophan, 1′-hydroxymidazolam, and 6β-hydroxtestosterone and hydroxybupropion) were determined using LC–MS/MS.

[1] = Caco-2 bi-directional permeability; format: in vitro ADME, human; details: human, Caco-2, pH 7.4; read-out: Efflux ratio (Re)
Description: (§1) Toxicity concerns remain an important issue in the use of aromatic aldehydes in treating a chronic disease, such as SCD, especially as it involves modification of a large amount of in vivo present Hb. […] We evaluated key metrics such as in vitro RBC partitioning and ADME/safety profiles, in order to glean important safety insights. […] We also assessed VZHE-039 at 10 μM for its bi-directional cell permeability using Caco-2 cell monolayers[53],[54].
(§2) Human epithelial colorectal adenocarcinoma (Caco-2) cells (HTB-37) were cultured in T75 flasks using complete Dulbecco’s Modified Eagles Medium (DMEM) containing 10% fetal bovine serum (FBS), 1% glutamine, 1% penicillin and 1% streptomycin, at 37 °C in a 5% CO2 atmosphere. Cells were passaged at 80–90% confluency using 0.05% trypsin–EDTA and the medium was changed every other day. Following this, the cells were trypsinized, suspended in medium and applied to a Millipore 96-well plate where they were cultured as monolayers at a density of 25,000 cells/well. The cells were incubated in a 37 °C/5% CO2 incubator to allow cell attachment and proliferation. Media was changed every 2–3 days for 21 days when cells reached 100% confluency. For Apical → Basolateral (A → B) permeability, 10 μM VZHE-039 was added to the apical (A) side and the amount of permeation determined on the basolateral (B) side; for Basolateral → Apical (B → A) permeability, 10 μM VZHE-039 was added to the B-side and the amount of permeation was determined on the A side. The A-side buffer contained 100 μM lucifer yellow dye, in Transport Buffer (1.98 g/L glucose in 10 mM HEPES, 1 × Hank’s Balanced Salt Solution) pH 7.4, and the B-side buffer used was the Transport Buffer at pH 7.4. Caco-2 cells were incubated with 10 μM VZHE0-39 in these buffers for 2 h. Ranitidine (low permeability), Warfarin (high permeability) and Talinolol (P-gp efflux control) were used as controls. […] Following centrifugation, the supernatant for donor and receiver side samples was analyzed by LC–MS/MS to determine peak area ratios.
(§3) The efflux ratio (Re) was calculated as: Re=PappB→A/PappA→B

Caco-2 cell monolayers = assay: Caco-2 bi-directional permeability; format: in vitro ADME, human; details: Caco-2 monolayers
Description: as §1, §2, §3

- IC50 (CYP1A2): 4.7 µM
- efflux ratio at 2 h, 10 µM [1]: 0.85
- Permeability (in words) (Caco-2 cell monolayers; 10 μM): high in vitro GI permeability
SMILES: O=Cc1c(O)cccc1OCc1cccc(CO)n1 [VZHE-039, 2-((6-(Hydroxymethyl)pyridin-2-yl)methoxy)-6-hydroxybenzaldehyde]
- Efflux transporter (P-gp) substrate (in words) (Caco-2 cell monolayers): not an efflux transporter (P-gp) substrate
